Reference: patent publication US12692301B2, “Methods of improving retina-associated disease outcome using CCR3-inhibitors” (ALKAHEST INC., priority 2020, dated 2026)
Read-outs that look alike come from different tables or passages of the source.

How the values were obtained:
CCR3 [1] = target: T1, CCR3 (Homo sapiens, UniProt P51677); settings: assay not stated; from the cited reference; cited from earlier work
T1 sequence (P51677 1-355): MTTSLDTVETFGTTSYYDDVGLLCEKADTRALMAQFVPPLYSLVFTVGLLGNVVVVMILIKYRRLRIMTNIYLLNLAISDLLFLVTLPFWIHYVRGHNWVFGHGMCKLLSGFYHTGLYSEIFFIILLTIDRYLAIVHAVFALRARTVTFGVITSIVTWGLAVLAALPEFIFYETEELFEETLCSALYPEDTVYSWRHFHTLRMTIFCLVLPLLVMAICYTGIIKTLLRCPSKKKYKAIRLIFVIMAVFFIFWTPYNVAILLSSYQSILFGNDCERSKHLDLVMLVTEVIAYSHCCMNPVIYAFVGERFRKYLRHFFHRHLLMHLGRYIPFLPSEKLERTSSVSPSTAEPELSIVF

CCR3 [2] = target: T1, CCR3; settings: from the cited reference; read-out: IC50 (chemotaxis); cited from earlier work
CCR3 [3] = target: T1, CCR3; settings: from the cited reference; read-out: IC50 (binding); cited from earlier work
CCR3 [4] = target: T1, CCR3; settings: from the cited reference; read-out: IC50 (Calcium influx); cited from earlier work
[5] = system: human eotaxin-1 induced eosinophil shape change; settings: human whole blood; read-out: IC50, antagonism of human eotaxin-1 induced eosinophil shape change; cited from earlier work
[6] = system: refractory wet Age-Related Macular Degeneration (wAMD); experiment: clinical case, refractory subject eyes: oral Compound 1 followed by IVT anti-VEGF; type: in vivo, human; settings: Compound 1 regimen followed by IVT anti-VEGF, summary
Procedure: Subjects with refractory wet Age-Related Macular Degeneration (wAMD) were administered 400 mg of Compound 1 CCR antagonist orally twice per day (BID) for a total dose of 800 mg per day. The treatment regimen of Compound 1 lasted 6-weeks. Refractory subjects for this 6-week regimen were described as having persistent subretinal fluid, intraretinal fluid, and absence of improvement in visual acuity after at least 3 consecutive (approximately 4-6 weeks apart) IVT anti-VEGF injections. After the end of a clinical trial consisting of 6-weeks of Compound 1 CCR antagonist treatment, and four weeks of clinical trial follow up with no additional treatment, a subject with heavily pre-treated bilateral disease entered back into normal treatment with their physician and was treated or re-treated with α-VEGF agents per physician judgment guided by standard criteria such as new CNV activity on OCT/angiography OCT (angio-OCT or aOCT) or foveal subretinal fluid (SRF)/intra-retinal fluid (IRF) or PED. Different α-VEGF agents (described in FIGS. 4-5, 9-10, 14-15, 19-21 and Tables D and H) were administered by intra-vitreal injection. […] The central retinal thickness (CRT) was measured automatically (software version 9.6). […] Subretinal and intraretinal fluid presence was assessed manually. […] CNV activity signs such as neovascular vasculature seen on OCT angiography were monitored. […]

[7] = system: choroidal neovascularization (CNV) secondary to wAMD; experiment: clinical cases, naïve subject eyes: oral Compound 1 followed by IVT anti-VEGF; type: in vivo, human
Procedure: Newly diagnosed subjects with choroidal neovascularization (CNV) secondary to wAMD were administered 400 mg of Compound 1 CCR antagonist orally twice per day (BID) for a total dose of 800 mg per day. The clinical trial treatment regimen included 6 weeks of Compound 1 followed by 4 weeks of safety follow up (weeks 7 and 8 as in office visits and follow up by phone at week 10) with no additional Compound 1 treatment. Subject treatment visits took place once per week where mean changes in BCVA as measured by ETDRS were noted, slit lamp and SD-OCT performed, and intraocular pressure taken. Subjects then returned to routine treatment with their physician post clinical trial and were treated or re-treated with α-VEGF agents per physician judgment guided by standard criteria such as new CNV activity on OCT/angio-OCT (aOCT) or increased foveal subretinal fluid (SRF)/intra-retinal fluid (IRF). Different α-VEGF agents (described in FIGS. 1-3, 6-8, 11-13, and 16-18, 21 and Tables A-C and E-G) were administered by intra-vitreal injection. For aflibercept, 2 mg in 0.05 mL was given per single intravitreal injection. For bevacizumab, 1.25 mg in 0.05 mL was given per single intravitreal injection. For ranibizumab, 0.5 mg in 0.05 mL was given per single intravitreal injection. All OCT tests were performed using REVO NX (Optopol Technology, Poland). A 3-dimensional (3D) scanning protocol covering a 7×7 mm area was used (1024 A-scans×64 tomograms). The central retinal thickness (CRT) was measured automatically (software version 9.6). The detection of the fovea and the accuracy of layers segmentation was checked by the operator. If necessary, the fovea location and the outer retinal boundaries were corrected manually by moving the pointer to the desired position. In such cases, the central macular thickness value was recalculated. Subretinal and intraretinal fluid presence was assessed manually. SRF was defined as a hyporeflective space between retinal pigment epithelium and the sensory retina, whereas IRF as ovoid or round spaces within the retina, with a low reflectivity content. SRF and IRF was distinguished from the outer retinal tubulations (ORTs) and degenerative IRF. The latter were not recognized as a CNV activity sign. CNV activity signs such as neovascular vasculature seen on OCT angiography were monitored. Additionally, lipid exudates and enlargement of RPE elevation were noted.

neovascular (wet) AMD = settings: cited from earlier work; for patients with persistent presence of fluid at the retina (OCT or angiography): IVT, after two years of monthly injections
[8] = Patient Case 3, after 6 weeks oral Compound 1, once ranibizumab, subsequently bevacizumab

CN1CCC(c2ccccc2)[C@@H]1COc1cccnc1 (stereo partly drawn)
IC50 (CCR3 [1]): 195 nM

CC(=O)Nc1ccc2nc(SCC(=O)NC3CCN(Cc4ccc(Cl)c(Cl)c4)CC3)sc2c1
IC50 (CCR3 [1]): 1.5 nM

C[C@@H](NC(=O)Nc1cccc(-c2nnnn2C)c1)C(O)CN1CCC[C@@H](Cc2ccc(F)cc2)C1 (stereo partly drawn)
IC50 (CCR3 [2]): 0.038 nM | IC50 (CCR3 [3]): 0.3 nM

CCCN1CCC(Cc2ccc(F)cc2)C[C@@H]1CCCNC(=O)Nc1cccc(C(C)=O)c1 (stereo partly drawn)
IC50 (CCR3 [2]): 19 nM | IC50 (CCR3 [4]): 26 nM | IC50 (CCR3 [3]): 2 nM

NC(=O)c1ccc(CNC(=O)NCC2CN(Cc3ccc(Cl)c(Cl)c3)CCO2)cc1 (stereo not drawn)
IC50 (CCR3 [1]): 10 nM

O=C(NCC1CCCN(C2CCN(Cc3ccc(Cl)c(Cl)c3)CC2)C1)c1cccc2cccnc12 (stereo not drawn)
IC50 (CCR3 [1]): 30 nM

Cc1ccc(C(=O)N[C@@H](Cc2ccc(Cl)cc2)C(=O)N[C@@H](C)C(=O)Nc2ccc(Cl)cc2)c(C)c1
IC50 (CCR3 [1]): 3.5 nM

O=C(Nc1ccccc1[N+](=O)[O-])[C@@H]1CCCN1CNC1CC2CCC(C1)N2Cc1ccc2cc(F)ccc2c1 (stereo partly drawn)
IC50 (CCR3 [1]): 4.9 nM

CC1=C(CC(CCc2ccc([N+](=O)[O-])cc2)C2CCN(C(=O)c3ccncc3)CC2)C(=O)N(c2ccc(F)cc2)C1C (stereo not drawn)
IC50 (CCR3 [1]): 12 nM

Cc1ccc[n+]([O-])c1C(=O)N1CCC(=CC(=O)N[C@@H]2CCN(Cc3ccc4cc(F)ccc4c3)C2)CC1
IC50 (CCR3 [2]): 19.9 nM | IC50 (CCR3 [4]): 5.4 nM | IC50 (CCR3 [3]): 3 nM

Cc1ccc(C(=O)N2CCC(=CC(=O)N[C@@H]3CCN(Cc4ccc5cc(F)ccc5c4)C3)CC2)nn1
IC50 (CCR3 [4]): 6.2 nM

Cc1cc(C(=O)N(C)C)cc(NC(=O)[C@H]2CCC(=O)N2C2CCN(Cc3ccc(Cl)c(C)c3)CC2)n1 [Compound 1]
IC50 [5]: 42.5 ± 43.5 nM | CRT [6]: stabilized | Central retinal pigmental epithelium detachment height [6]: reduced

aflibercept
average anti-VEGF doses required per year ([7]; Patient Case 2, after 6 weeks oral Compound 1): 2.36 doses per year

bevacizumab
average anti-VEGF doses required per year ([7]; Patient Case 1, after 6 weeks oral Compound 1): 0.667 dose per year | average anti-VEGF doses required per year [7, 8]: 1.23 dose per year | patients with persistent presence of fluid at the retina (OCT or angiography) (neovascular (wet) AMD): 67.4%

B1: ranibizumab (antibody, chains of the INN, looked up, V domains shown)
VH: EVQLVESGGGLVQPGGSLRLSCAASGYDFTHYGMNWVRQAPGKGLEWVGWINTYTGEPTYAADFKRRFTFSLDTSKSTAYLQMNSLRAEDTAVYYCAKYPYYYGTSHWYFDVWGQGTLVTVSS
VL: DIQLTQSPSSLSASVGDRVTITCSASQDISNYLNWYQQKPGKAPKVLIYFTSSLHSGVPSRFSGSGSGTDFTLTISSLQPEDFATYYCQQYSTVPWTFGQGTKVEIK
modifications: Fab
notes: anti-VEGF antibody, intravitreal injection
average anti-VEGF doses required per year [7, 8]: 1.23 dose per year | patients with persistent presence of fluid at the retina (OCT or angiography) (neovascular (wet) AMD): 51.5% | additional average letter gain with monthly dosing versus less frequent dosing (neovascular (wet) AMD; nine months after 3 initial monthly doses, FDA label): 1-2 letter | loss of visual acuity benefit, dosing every 3 months compared with continued monthly dosing (neovascular (wet) AMD; over the next 9 months after 4 monthly doses, FDA label): ~5 letter
